Biological target: CDK2/Cyclin E1 (Homo sapiens (Human), UniProt P24941)
Test: CDK2/Cyclin E1 HTRF enzyme activity assay
Assay type: biochemical
Settings: 1 mM ATP
Method: Example A. CDK2/Cyclin E1 HTRF Enzyme Activity Assay
CDK2/Cyclin E1 enzyme activity assays utilized full-length human CDK2 co-expressed as N-terminal GST-tagged protein with FLAG-Cyclin E1 in a baculovirus expression system (Carna Product Number 04-165). Assays were conducted in white 384-well polystyrene plates in a final reaction volume of 8 μL. CDK2/Cyclin E1 (0.25 nM) was incubated with compounds (40 nL serially diluted in DMSO) in the presence of ATP (50 μM or 1 mM) and 50 nM ULight™-labeled eIF4E-binding protein 1 (THR37/46) peptide (PerkinElmer) in assay buffer (containing 50 mM HEPES pH 7.5, 1 mM EGTA, 10 mM MgCl2, 2 mM DTT, 0.05 mg/mL BSA, and 0.01% Tween 20) for 60 minutes at room temperature. The reactions were stopped by the addition of EDTA and Europium-labeled anti-phospho-4E-BP1 antibody (PerkinElmer), for a final concentration of 15 mM and 1.5 nM, respectively. HTRF signals were read after 1 hour at room temperature on a PHERAstar FS plate reader (BMG Labtech). Data were analyzed with IDBS XLFit and GraphPad Prism 5.0 software using a three or four parameter dose response curve to determine IC50 for each compound.

| SMILES | IC50 [nM] |
| --- | --- |
| CCn1cnc(S(=O)(=O)N2CCC(Nc3ncc4c(n3)N(c3cc(F)ccc3Cl)C(=O)C43CC3)CC2)c1 [Example 19, 7′-(2-chloro-5-fluorophenyl)-2′-((1-((1-ethyl-1H-imidazol-4-yl)sulfonyl)piperidin-4-yl)amino)spiro[cyclopropane-1,5′-pyrrolo[2,3-d]pyrimidin]-6′(7′H)-one] | ≤ 50 |
| O=C1N(c2cc3c(cc2Cl)CNCC3)c2nc(NC3CCN(S(=O)(=O)c4ncc[nH]4)CC3)ncc2C12CC2 [Example 18, 2′-((1-((1H-imidazol-2-yl)sulfonyl)piperidin-4-yl)amino)-7′-(7-chloro-1,2,3,4-tetrahydroisoquinolin-6-yl)spiro[cyclopropane-1,5′-pyrrolo[2,3-d]pyrimidin]-6′(7′H)-one] | ≤ 50 |
| O=C1N([C@@H]2CCC[C@@H](O)C2)c2nc(NC3CCN(S(=O)(=O)c4cccc(N5CCC5)n4)CC3)ncc2C12CC2 [Example 13, 2′-((1-((6-(azetidin-1-yl)pyridin-2-yl)sulfonyl)piperidin-4-yl)amino)-7′-((1R,3R)-3-hydroxycyclohexyl)spiro[cyclopropane-1,5′-pyrrolo[2,3-d]pyrimidin]-6′(7′H)-one] | ≤ 50 |
| C[C@@]1(O)CCC[C@H]1N1C(=O)C2(CC2)c2cnc(NC3CCN(S(=O)(=O)c4ncc[nH]4)CC3)nc21 (relative stereo) [Example 17, 2′-((1-((1H-imidazol-2-yl)sulfonyl)piperidin-4-yl)amino)-7′-((trans)-2-hydroxy-2-methylcyclopentyl)spiro[cyclopropane-1,5′-pyrrolo[2,3-d]pyrimidin]-6′(7′H)-one] | ≤ 50 |
| C[C@@H](C1CC1)N1C(=O)C2(CC2)c2cnc(NC3CCN(S(=O)(=O)c4ccc(=O)[nH]c4)CC3)nc21 [Example 15, (S)-7′-(1-cyclopropylethyl)-2′-((1-((6-oxo-1,6-dihydropyridin-3-yl)sulfonyl)piperidin-4-yl)amino)spiro[cyclopropane-1,5′-pyrrolo[2,3-d]pyrimidin]-6′(7′H)-one] | ≤ 50 |
| C[C@@H](C1CC1)N1C(=O)C2(CC2)c2cnc(NC3CCN(S(=O)(=O)c4ncc[nH]4)CC3)nc21 [Example 14, (S)-2′-((1-((1H-imidazol-2-yl)sulfonyl)piperidin-4-yl)amino)-7′-(1-cyclopropylethyl)spiro[cyclopropane-1,5′-pyrrolo[2,3-d]pyrimidin]-6′(7′H)-one] | ≤ 50 |
| CCN1CC(n2cc(S(=O)(=O)N3CCC(Nc4ncc5c(n4)N([C@@H](C)C4CC4)C(=O)C54CC4)CC3)cn2)C1 [Example 16, (S)-7′-(1-cyclopropylethyl)-2′-((1-((1-(1-ethylazetidin-3-yl)-1H-pyrazol-4-yl)sulfonyl)piperidin-4-yl)amino)spiro[cyclopropane-1,5′-pyrrolo[2,3-d]pyrimidin]-6′(7′H)-one] | ≤ 50 |
| O=C1N(C2CCCC2)c2nc(NC3CCN(S(=O)(=O)C4CC4)CC3)ncc2C12CC2 [Example 3, 7′-Cyclopentyl-2′-((1-(cyclopropylsulfonyl)piperidin-4-yl)amino)spiro[cyclopropane-1,5′-pyrrolo[2,3-d]pyrimidin]-6′(7′H)-one] | ≤ 50 |
| CC1CCCC1N1C(=O)C2(CC2)c2cnc(NC3CCN(S(C)(=O)=O)CC3)nc21 (stereo not shown) [Example 8, 7′-(2-Methylcyclopentyl)-2′-((1-(methylsulfonyl)piperidin-4-yl)amino)spiro[cyclopropane-1,5′-pyrrolo[2,3-d]pyrimidin]-6′(7′H)-one] | ≤ 50 |
| CCC(C(F)F)N1C(=O)C2(CC2)c2cnc(NC3CCN(S(C)(=O)=O)CC3)nc21 (racemic) [Example 10, 7′-(1,1-difluorobutan-2-yl)-2′-((1-(methylsulfonyl)piperidin-4-yl)amino)spiro[cyclopropane-1,5′-pyrrolo[2,3-d]pyrimidin]-6′(7′H)-one] | ≤ 50 |
| Cn1cc(S(=O)(=O)N2CCC(Nc3ncc4c(n3)N(C3CCCC3)C(=O)C43CC3)CC2)cn1 [Example 7, 7′-Cyclopentyl-2′-((1-((1-methyl-1H-pyrazol-4-yl)sulfonyl)piperidin-4-yl)amino)spiro[cyclopropane-1,5′-pyrrolo[2,3-d]pyrimidin]-6′(7′H)-one] | ≤ 50 |
| Cn1cc(S(=O)(=O)N2CCC(Nc3ncc4c(n3)N([C@@H]3CCC[C@@H](O)C3)C(=O)C43CC3)CC2)cn1 [Example 12, 7′-((1R,3R)-3-hydroxycyclohexyl)-2′-((1-((1-methyl-1H-pyrazol-4-yl)sulfonyl)piperidin-4-yl)amino)spiro[cyclopropane-1,5′-pyrrolo[2,3-d]pyrimidin]-6′(7′H)-one] | ≤ 50 |
| O=C1N(C2CCCC2)c2nc(NC3CCN(S(=O)(=O)c4cccnc4)CC3)ncc2C12CC2 [Example 5, 7′-Cyclopentyl-2′-((1-(pyridin-3-ylsulfonyl)piperidin-4-yl)amino)spiro[cyclopropane-1,5′-pyrrolo[2,3-d]pyrimidin]-6′(7′H)-one] | ≤ 50 |

— patent publication US11384083B2, “Substituted spiro[cyclopropane-1,5′-pyrrolo[2,3-d]pyrimidin]-6′(7′h)-ones as CDK2 inhibitors” (Incyte Corporation, priority 2019, dated 2022)
